From paper PMC7217877, “N-AS-triggered SPMs are direct regulators of microglia in a model of Alzheimer’s disease” (Nature Communications, 2020)
Values joined by “and” are separate entries in the source; they are usually repeats but may differ in a detail not shown here. Equal entries are not always repeated.

Tests used:
[1] = tissue concentrations at 24 h (brain, liver, kidney, heart; Supplementary Fig 3g); assay type: in vivo, C57BL/6 mice; parameters: Brain concentration (sFig 3g): unit not given here; details: for Heart concentration (sFig 3g) / Kidney concentration (sFig 3g) / Liver concentration (sFig 3g) / Brain concentration (sFig 3g): 24 h, individual animals
Experimental: C57BL/6 mice were administered N-AS (Sigma-Aldrich, 01912) at doses of 1 mg kg^−1 (i.v.) or 10 mg kg^−1 (p.o.). Venous blood samples were collected at 5, 15, and 30 min, and 1, 2, 4, 8, and 24 h postdose. A 30 μl of plasma was separated from whole blood by centrifugation and stored at −80 °C until analysis. Also, brain samples were collected at 1, 2, 4, and 24 h postdose and heart, liver, and kidney samples were collected at 24 h postdose, thoroughly rinsed with physiological saline and weighed. Twenty percentage of tissue homogenates were prepared by homogenizing the tissue samples with four volumes of saline. A 30 μl aliquot of plasma or a 50 μl aliquot of tissue homogenates were deproteinized by addition of 200 μl cold methanol (containing naringenin as internal standard at 20 ng ml^−1) and centrifuged at 15,974×g for 10 min. A 10 μl aliquot of the supernatant was injected into Agilent 6470 LC-MS/MS system. Separation was performed on a Synergy Polar RP column (4 μm particle size, 2.0 mm ×150 mm, Phenomenex) using a mobile phase that consisted of methanol and water (85:15, v/v) with 0.1% formic acid at a flow rate of 0.2 ml min^−1. Quantification was carried out using multiple reaction monitoring (MRM) at m/z 340.3→263.3 for N-AS and m/z 271.1→151.3 for naringenin (internal standard) in negative ionization mode and collision energy of 20 eV. p, and relative oral BA values were calculated as follows: BA% = AUCp.o. normalized by p.o. dose/AUCi.v. normalized by i.v. dose × 100.

[2] = solubility (stated in discussion); assay type: physicochemical
APP/PS1 mice = assay: Iba1+ microglia and GFAP+ astrocyte quantification in cortex (Fig 6h,i); assay type: in vivo, mouse
Experimental: Thioflavin S (Sigma-Aldrich) staining was carried out according to previously described procedures. We used 6E10 (mouse, 1:100, Signet, SIG39300), anti-20G10 (mouse, 1:1000, provided by D. R. Howlett, GlaxoSmithKline, Harlow, Essex, UK) for Aβ42, anti-G30 (rabbit, 1:1000, provided by D. R. Howlett) for Aβ40, SMA (mouse, 1:400, Sigma-Aldrich, A2547), AT8 (mouse, 1:500, Thermo Fisher Scientific, MN1020), Caspase-3 (mouse, 1:200, Novus Biologicals, NB100-56708), ac-S565 (rabbit, 1:100), COX2 (mouse, 1:250, Thermo Fisher Scientific, 35-8200), Iba1 (rabbit, 1:500, Wako, 019-19941 and goat, Abcam, ab5076), NeuN (mouse, 1:500, Millipore, MAB177), GFAP (rabbit, 1:500, Dako, N1506 and chicken, 1:500, Abcam, ab4674), and Lamp1 (mouse, 1:200, Abcam, ab24170). The sections were analyzed with a laser-scanning confocal microscope (FV3000; Olympus) or with a BX51 microscope (Olympus). MetaMorph software (Molecular Devices) was used to quantification. Three-dimensional reconstruction of microglia was recorded and analyzed using IMARIS software (Bitplane)[11]. For the analysis of age-dependent microglial COX2^+ CX3CR1^+ cells in WT and APP/PS1 mice, COX2 (rabbit, 1:100, Abcam, ab15191) and CX3CR1 (mouse, 1:100, BioLegend, 149008) antibody were used and the images were acquired on Alexa 488 and APC Channel with performed using Operetta CLS and Analysis Software 4.5 (Perkin-Elmer).
Transgenic mouse lines over-expressing the hAPP695swe (APP) and presenilin-1M146V (PS1) mutations were originated from GlaxoSmithKline (Harlow, UK)[32] and maintained as described previously. We purchased 5×FAD mice from Jackson Labs (Stock number. 34840-JAX). Because APP/PS1 and 5xFAD mice show sex differences in disease progression, we used only male mice. To examine possible therapeutic effect of N-AS and aspirin in APP/PS1 mice, the N-AS (30 mg kg^−1, Sigma-Aldrich, 01912) was injected daily s.c. for 8 weeks to 7-months-old APP/PS1 mice until the age of 9 months, and aspirin (2 mg kg^−1, Sigma-Aldrich, A5376)[33] was administrated orally to 7-months-old APP/PS1 mice for 8 weeks. […]

[3] = APP/PS1 + N-AS, individual animals

Heart concentration (sFig 3g) ([1]; i.v 1mg/kg): 0 | Kidney concentration (sFig 3g) ([1]; i.v 1mg/kg): 0 | Liver concentration (sFig 3g) ([1]; i.v 1mg/kg): 0 | Brain concentration (sFig 3g) ([1]; i.v 1mg/kg, 1 mg/kg): 13.15 and 12.57 and 8.38 and 7.48 | Heart concentration (sFig 3g) ([1]; p.o. 10mg/kg): 0 | Kidney concentration (sFig 3g) ([1]; p.o. 10mg/kg): 0 | Liver concentration (sFig 3g) ([1]; p.o. 10mg/kg): 0 | Brain concentration (sFig 3g) ([1]; p.o. 10mg/kg, 10 mg/kg): 20.2 and 32.76 and 11.3 and 29.06 | solubility, in words [2]: poor solubility
SMILES: CCCCCCCCCCCCC/C=C/[C@@H](O)[C@H](CO)NC(C)=O [N-AS, N-((2S,3R,E)-1,3-Dihydroxyoctadec-4-en-2-yl)acetamide]
tissue concentration of N-AS at 24 hours post administration, in words ([1]; brain vs liver, kidney, heart, i.v. 1 mg/kg or p.o. 10 mg/kg): brain showed the highest concentration of N-AS | GFAP+ astrocyte quantification (Figure 6i) (APP/PS1 mice; [3]): 2.9 and 1.684 and 2.972 and 1.386 and 1.661 and 0.8495 and 1.293 and 1.379 | Iba1+ microglia quantification (Figure 6h) (APP/PS1 mice; [3]): 0.2355 and 0.191 and 0.3245 and 0.8739 and 0.8648 and 0.875 and 0.5574 and 0.579 and 0.4301 | inflammatory response (Iba1+ microglia, GFAP+ astrocyte) (APP/PS1 mice; N-AS vs vehicle APP/PS1): improved
